row,SMILES,melting point
1,"CC(C)n1nc(-c2c(Sc3ccccc3)nc(N)nc2-c2ccccc2)ccc1=O [Example 138, 6-[2-Amino-4-phenyl-6-(phenylthio)-5-pyrimidinyl]-2-isopropyl-3(2H)-pyridazinone]",214 to 215 °C
2,"CC(C)n1nc(-c2c(-c3ccccc3)nc(N)[nH]c2=O)ccc1=O [Example 140, 6-(2-amino-6-oxo-4-phenyl-1,6-dihydro-5-pyrimidinyl)-2-isopropyl-3(2H)-pyridazinone]",291 to 295 °C
3,"CC(C)n1nc(-c2c(-c3ccccc3)nc(N)[nH]c2=S)ccc1=O [Example 141, 6-(2-amino-4-phenyl-6-thioxo-1,6-dihydro-5-pyrimidinyl)-2-isopropyl-3(2H)-pyridazinone]",295 to 299 °C
4,"CSc1nc(N)nc(-c2ccccc2)c1-c1ccc(=O)n(C)n1 [Example 142, 6-[2-Amino-4-(methylthio)-6-phenyl-5-pyrimidinyl]-2-methyl-3(2H)-pyridazinone]",233 to 235 °C
5,"Cn1nc(-c2c(-c3ccccc3)nc(N)nc2[S+](C)[O-])ccc1=O (stereo not shown) [Example 143, 6-[2-amino-4-(methylsulfinyl)-6-phenyl-5-pyrimidinyl]-2-methyl-3(2H)-pyridazinone]",> 250 °C
6,"COc1nc(N)nc(-c2ccccc2)c1-c1ccc(=O)n(C)n1 [Example 144, 6-(2-Amino-4-methoxy-6-phenyl-5-pyrimidinyl)-2-methyl-3(2H)-pyridazinone]",218 to 220 °C
7,"Cn1nc(-c2c(NCc3ccccc3)nc(N)nc2-c2ccccc2)ccc1=O [Example 145, 6-[2-Amino-4-(benzylamino)-6-phenyl-5-pyrimidinyl]-2-methyl-3(2H)-pyridazinone]",> 250 °C
8,"Cn1nc(-c2c(NCc3ccccn3)nc(N)nc2-c2ccccc2)ccc1=O [Example 146, 6-{2-amino-4-phenyl-6-[(2-pyridinylmethyl)amino]-5-pyrimidinyl}-2-methyl-3(2H)-pyridazinone]",248 to 250 °C
9,"Cn1nc(-c2c(Nc3ccccc3)nc(N)nc2-c2ccccc2)ccc1=O [Example 147, 6-(2-Amino-4-anilino-6-phenyl-5-pyrimidinyl)-2-methyl-3(2H)-pyridazinone]",252 to 254 °C
10,"CSc1nc(N)nc(-c2ccc(F)cc2)c1-c1ccc(=O)n(C(C)C)n1 [Example 148, 6-[2-amino-4-(4-fluorophenyl)-6-(methylthio)-5-pyrimidinyl]-2-isopropyl-3(2H)-pyridazinone]",232 to 234 °C
11,"COc1nc(N)nc(-c2ccc(F)cc2)c1-c1ccc(=O)n(C(C)C)n1 [Example 149, 6-[2-amino-4-(4-fluorophenyl)-6-methoxy-5-pyrimidinyl]-2-isopropyl-3(2H)-pyridazinone]",207 to 209 °C
12,"COc1nc(N)nc(-c2ccc(S(C)(=O)=O)cc2)c1-c1ccc(=O)n(C(C)C)n1 [Example 150, 6-{2-amino-4-methoxy-6-[4-(methylsulfonyl)phenyl]-5-pyrimidinyl}-2-isopropyl-3(2H)-pyridazinone]",148 to 151 °C
13,"CC(C)n1nc(-c2c(-c3ccc(F)cc3)nc(N)nc2[S+](C)[O-])ccc1=O (stereo not shown) [Example 151, 6-[2-amino-4-(4-fluorophenyl)-6-(methylsulfinyl)-5-pyrimidinyl]-2-isopropyl-3(2H)-pyridazinone]",238 to 240 °C
14,"CSc1nc(N)nc(-c2ccc(S(C)(=O)=O)cc2)c1-c1ccc(=O)n(C(C)C)n1 [Example 151, 6-[2-amino-4-[4-(methylsulfonyl)phenyl]-6-(methylthio)-5-pyrimidinyl]-2-isopropyl-3(2H)-pyridazinone]",241 to 243 °C
15,"CSc1nc(N)nc(-c2ccc([S+](C)[O-])cc2)c1-c1ccc(=O)n(C(C)C)n1 (stereo not shown) [Example 152, 6-[2-amino-4-[4-(methylsulfinyl)phenyl]-6-(methylthio)-5-pyrimidinyl]-2-isopropyl-3(2H)-pyridazinone]",221 to 223 °C
16,"COc1nc(N)nc(-c2ccc([S+](C)[O-])cc2)c1-c1ccc(=O)n(C(C)C)n1 (stereo not shown) [Example 153, 6-{2-Amino-4-methoxy-6-[4-(methylsulfinyl)phenyl]-5-pyrimidinyl}-2-isopropyl-3(2H)-pyridazinone]",127 to 130 °C
17,"CC(C)n1nc(-c2c(NCc3ccccc3)nc(N)nc2-c2ccc(F)cc2)ccc1=O [Example 156, 6-[2-Amino-4-(benzylamino)-6-(4-fluorophenyl)-5-pyrimidinyl]-2-isopropyl-3(2H)-pyridazinone]",191 to 192 °C
18,"CC(C)n1nc(-c2c(NCc3ccccn3)nc(N)nc2-c2ccc(F)cc2)ccc1=O [Example 157, 6-{2-Amino-4-(4-fluorophenyl)-6-[(2-pyridinylmethyl)amino]-5-pyrimidinyl}-2-isopropyl-3(2H)-pyridazinone]",210 to 212 °C
19,"CC(C)n1nc(-c2c(Nc3ccccc3)nc(N)nc2-c2ccc(F)cc2)ccc1=O [Example 158, 6-[2-Amino-4-anilino-6-(4-fluorophenyl)-5-pyrimidinyl]-2-isopropyl-3(2H)-pyridazinone]",> 250 °C

row,SMILES,melting point
1,"CC(C)n1nc(-c2c(-c3ccccc3)nc(N)n(CC(=O)OC(C)(C)C)c2=O)ccc1=O [Example 159, tert-butyl [2-amino-5-(1-isopropyl-6-oxo-1,6-dihydro-3-pyridazinyl)-6-oxo-4-phenyl-1(6H)-pyrimidinyl]acetate]",138 to 141 °C
2,"CC(C)n1nc(-c2c(OCC(=O)OC(C)(C)C)nc(N)nc2-c2ccccc2)ccc1=O [Example 159, tert-butyl {[2-amino-5-(1-isopropyl-6-oxo-1,6-dihydro-3-pyridazinyl)-6-phenyl-4-pyrimidinyl]-oxy}acetate]",160 to 162 °C
3,"CC(C)n1nc(-c2c(OCC(=O)c3ccccc3)nc(N)nc2-c2ccccc2)ccc1=O [Example 161, 6-[2-Amino-4-(2-oxo-2-phenylethoxy)-6-phenyl-5-pyrimidinyl]-2-isopropyl-3(2H)-pyridazinone]",182 to 183 °C
4,"CC(C)CC(=O)Nc1ncc(-c2ccc(=O)n(C(C)C)n2)c(-c2ccccc2)n1 [Example 162, N-[5-(1-isopropyl-6-oxo-1,6-dihydro-3-pyridazinyl)-4-phenyl-2-pyrimidinyl]-3-methylbutanamide]",161 °C
5,"CC(C)C(=O)Nc1ncc(-c2ccc(=O)n(C(C)C)n2)c(-c2ccccc2)n1 [Example 163, N-[5-(1-isopropyl-6-oxo-1,6-dihydro-3-pyridazinyl)-4-phenyl-2-pyrimidinyl]-2-methylpropanamide]",145 to 147 °C
6,"CCCC(=O)Nc1ncc(-c2ccc(=O)n(C(C)C)n2)c(-c2ccccc2)n1 [Example 164, N-[5-(1-isopropyl-6-oxo-1,6-dihydro-3-pyridazinyl)-4-phenyl-2-pyrimidinyl]butanamide]",148 to 150 °C
7,"CC(C)n1nc(-c2cnc(NC(=O)C3CCCCC3)nc2-c2ccccc2)ccc1=O [Example 165, N-[5-(1-isopropyl-6-oxo-1,6-dihydro-3-pyridazinyl)-4-phenyl-2-pyrimidinyl]cyclohexanecarboxamide]",195 to 198 °C
8,"COCC(=O)Nc1ncc(-c2ccc(=O)n(C(C)C)n2)c(-c2ccccc2)n1 [Example 166, N-[5-(1-isopropyl-6-oxo-1,6-dihydro-3-pyridazinyl)-4-phenyl-2-pyrimidinyl]-2-methoxyacetamide]",94 to 97 °C
9,"CC(C)n1nc(-c2cnc(NC(=O)C3CC3)nc2-c2ccccc2)ccc1=O [Example 167, N-[5-(1-isopropyl-6-oxo-1,6-dihydro-3-pyridazinyl)-4-phenyl-2-pyrimidinyl]cyclopropanecarboxamide]",143 to 147 °C
10,"COC(=O)Nc1ncc(-c2ccc(=O)n(C(C)C)n2)c(-c2ccccc2)n1 [Example 168, Methyl 5-(1-isopropyl-6-oxo-1,6-dihydro-3-pyridazinyl)-4-phenyl-2-pyrimidinylcarbamate]",197 to 200 °C
11,"CC(C)n1nc(-c2cnc(NC(=O)c3ccccc3)nc2-c2ccccc2)ccc1=O [Example 169, N-[5-(1-isopropyl-6-oxo-1,6-dihydro-3-pyridazinyl)-4-phenyl-2-pyrimidinyl]benzamide]",116 to 120 °C
12,"CC(C)n1nc(-c2cnc(NC(=O)c3ccc(Cl)cc3)nc2-c2ccccc2)ccc1=O [Example 171, 4-Chloro-N-[5-(1-isopropyl-6-oxo-1,6-dihydro-3-pyridazinyl)-4-phenyl-2-pyrimidinyl]benzamide]",100 °C
13,"COc1ccc(C(=O)Nc2ncc(-c3ccc(=O)n(C(C)C)n3)c(-c3ccccc3)n2)cc1 [Example 172, N-[5-(1-isopropyl-6-oxo-1,6-dihydro-3-pyridazinyl)-4-phenyl-2-pyrimidinyl]-4-methoxybenzamide]",171 to 174 °C
14,"Cc1ccc(C(=O)Nc2ncc(-c3ccc(=O)n(C(C)C)n3)c(-c3ccccc3)n2)cc1 [Example 173, N-[5-(1-isopropyl-6-oxo-1,6-dihydro-3-pyridazinyl)-4-phenyl-2-pyrimidinyl]-4-methylbenzamide]",116 °C
15,"CC(C)n1nc(-c2cnc(NC(=O)c3ccc(C(F)(F)F)cc3)nc2-c2ccccc2)ccc1=O [Example 174, N-[5-(1-isopropyl-6-oxo-1,6-dihydro-3-pyridazinyl)-4-phenyl-2-pyrimidinyl]-4-(trifluoromethyl)benzamide]",160 to 163 °C
16,"CC(C)n1nc(-c2cnc(NC(=O)c3cccnc3)nc2-c2ccccc2)ccc1=O [Example 175, N-[5-(1-isopropyl-6-oxo-1,6-dihydro-3-pyridazinyl)-4-phenyl-2-pyrimidinyl)nicotinamide]",163 to 167 °C
17,"CC(C)n1nc(-c2cnc(NC(=O)C(C)(C)C)nc2-c2ccccc2)ccc1=O [Example 176, N-[5-(1-isopropyl-6-oxo-1,6-dihydro-3-pyridazinyl)-4-phenyl-2-pyrimidinyl]-2,2-dimethylpropanamide]",138 to 141 °C
18,"CC(C)n1nc(-c2cnc(NC(=O)OCC(Cl)(Cl)Cl)nc2-c2ccccc2)ccc1=O [Example 177, 2,2,2-trichloroethyl 5-(1-isopropyl-6-oxo-1,6-dihydro-3-pyridazinyl)-4-phenyl-2-pyrimidinylcarbamate]",158 to 162 °C
